IC50 data for 12 molecules are collected here from patent publication US20250114374A1, “BCL-2 INHIBITORS” (Newave Pharmaceutical Inc., priority 2021, published 2025).

This test relates to RS4; 11 with G101V mutation. The test can be described thus: In vitro anti-proliferation assay (ATPlite luminescence) in BCL-2-dependent ALL cell line RS4;11 with G101V mutation. As to conditions: read-out: RS411-G101V IC50. The format is cell-based. The method in brief:
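IC50 came from luminescent ATP quantification (ATPlite) following cell lysis. Compound dose ranges were applied for roughly 72 h to about 1×10^4 G101V-mutant RS4;11 cells per well, in 10% FBS medium.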
(In ATP-based viability assays light output follows the ATP content of the culture.)

Where [1] appears, read: cellular anti-proliferative IC50, about 72 hours, medium with 10% FBS, ATPlite.

Where two headings read alike, the source gives them in different places.

In the case of `CC(C)Oc1ccccc1[C@@H]1CN([C@H]2COCc3cc(F)c(F)cc32)CCN1C1CC2(CCN(c3ccc(C(=O)NS(=O)(=O)c4cc5c(c([N+](=O)[O-])c4)N[C@H](C4CCOCC4)CO5)c(N4c5cc6cc[nH]c6nc5O[C@H]5COCC[C@@H]54)c3)CC2)C1` [Example 216, 4-(2-((R)-4-((R)-6,7-difluoroisochroman-4-yl)-2-(2-isopropoxyphenyl)piperazin-1-yl)-7-azaspiro[3.5]nonan-7-yl)-N-(((R)-5-nitro-3-(tetrahydro-2H-pyran-4-yl)-3,4-dihydro-2H-benzo[b][1,4]oxazin-7-yl)sulfonyl)-2-((5aS,9aR)-6,7,9,9a-tetrahydro-1H-pyrano[3,4-b]pyrrolo[3′,2′:5,6]pyrido[3,2-e][1,4]oxazin-5(5aH)-yl)benzamide], the IC50 (Homo sapiens, RS4-11, 72 h) turned out to be 30.6 nM. As for `Cc1ccccc1[C@@H]1CN(Cc2ccc(F)c(F)c2)CCN1C1CC2(CCN(c3ccc(C(=O)NS(=O)(=O)c4ccc(NCC5CCC(C)(O)CC5)c([N+](=O)[O-])c4)c(N4c5cc6cc[nH]c6nc5O[C@H]5COCC[C@@H]54)c3)CC2)C1` (stereo partly drawn) [Example 154, 4-{2-[(2R)-4-[(3,4-difluorophenyl)methyl]-2-(2-methylphenyl)piperazin-1-yl]-7-azaspiro[3.5]nonan-7-yl}-2-[(3R,8S)-2,5-dioxa-9,15,17-triazatetracyclo[8.7.0.0^{3,8}.0^{12,16}]heptadeca-1(10),11,13,16-tetraen-9-yl]-N-[3-nitro-4-({[(1r,4r)-4-hydroxy-4-methylcyclohexyl]methyl}amino)benzenesulfonyl]benzamide], the half-maximal inhibitory concentration (IC50) under setting [1] was found to be 27.6 nM. `CC(C)Oc1ccccc1[C@@H]1CN(c2cccnc2)CCN1C1CC2(CCN(c3ccc(C(=O)NS(=O)(=O)c4cc5c(c([N+](=O)[O-])c4)N[C@H](C4CCOCC4)CO5)c(N4c5cc6cc[nH]c6nc5O[C@H]5COCC[C@@H]54)c3)CC2)C1` [Example 224, 2-[(3R,8S)-2,5-dioxa-9,15,17-triazatetracyclo[8.7.0.0^{3,8}.0^{12,16}]heptadeca-1(10),11,13,16-tetraen-9-yl]-4-{2-[(2R)-2-(2-isopropoxyphenyl)-4-(pyridin-3-yl)piperazin-1-yl]-7-azaspiro[3.5]nonan-7-yl}-N-[(3R)-5-nitro-3-(oxan-4-yl)-3,4-dihydro-2H-1,4-benzoxazin-7-ylsulfonyl]benzamide]: the IC50 under setting [1] was determined as 136 nM.

Turning to `COc1c(CN2CCN(C3CC4(CCN(c5ccc(C(=O)NS(=O)(=O)c6ccc(NCC7CCC(C)(O)CC7)c([N+](=O)[O-])c6)c(N6c7cc8cc[nH]c8nc7O[C@H]7COCC[C@@H]76)c5)CC4)C3)[C@@H](c3ccccc3OC(C)C)C2)ccnc1N1CCOCC1` (stereo partly drawn) [Example 151, N-((4-((((1r,4r)-4-hydroxy-4-methylcyclohexyl)methyl)amino)-3-nitrophenyl)sulfonyl)-4-(2-((S)-2-(2-isopropoxyphenyl)-4-((3-methoxy-2-morpholinopyridin-4-yl)methyl)piperazin-1-yl)-7-azaspiro[3.5]nonan-7-yl)-2-((5aS,9aR)-6,7,9,9a-tetrahydro-1H-pyrano[3,4-b]pyrrolo[3′,2′:5,6]pyrido[3,2-e][1,4]oxazin-5(5aH)-yl)benzamide], the IC50 under setting [1] stood at 19.8 nM. Still for that read-out and setting: the value for `Cc1ccccc1[C@@H]1CN(Cc2ccc(F)c(F)c2)CCN1C1CC2(CCN(c3ccc(C(=O)NS(=O)(=O)c4cc5c(c([N+](=O)[O-])c4)N[C@H](C4CCOCC4)CO5)c(N4c5cc6cc[nH]c6nc5O[C@H]5COCC[C@@H]54)c3)CC2)C1` [Example 168, 4-{2-[(2R)-4-[(3,4-difluorophenyl)methyl]-2-(2-methylphenyl)piperazin-1-yl]-7-azaspiro[3.5]nonan-7-yl}-2-[(3R,8S)-2,5-dioxa-9,15,17-triazatetracyclo[8.7.0.0^{3,8}.0^{12,16}]heptadeca-1(10),11,13,16-tetraen-9-yl]-N-[(3R)-5-nitro-3-(oxan-4-yl)-3,4-dihydro-2H-1,4-benzoxazin-7-ylsulfonyl]benzamide] was 64.3 nM.

As for `CC(C)Oc1ccccc1[C@@H]1CN(CC2CCOCC2)CCN1C1CC2(CCN(c3ccc(C(=O)NS(=O)(=O)c4cc5c(c([N+](=O)[O-])c4)N[C@H](C4CCOCC4)CO5)c(N4c5cc6cc[nH]c6nc5O[C@H]5COCC[C@@H]54)c3)CC2)C1` [Example 176, 4-(2-((R)-2-(2-isopropoxyphenyl)-4-((tetrahydro-2H-pyran-4-yl)methyl)piperazin-1-yl)-7-azaspiro[3.5]nonan-7-yl)-N-(((R)-5-nitro-3-(tetrahydro-2H-pyran-4-yl)-3,4-dihydro-2H-benzo[b][1,4]oxazin-7-yl)sulfonyl)-2-((5aS,9aR)-6,7,9,9a-tetrahydro-1H-pyrano[3,4-b]pyrrolo[3′,2′:5,6]pyrido[3,2-e][1,4]oxazin-5(5aH)-yl)benzamide], where the note is “Homo sapiens, RS4-11, 72 h”, the IC50 was 22.2 nM.

As for `CC(C)Oc1ccccc1[C@H]1CN(Cc2cnc3c(c2)OCCO3)CCN1C1CC2(CCN(c3ccc(C(=O)NS(=O)(=O)c4ccc(NCC5CCC(C)(O)CC5)c([N+](=O)[O-])c4)c(N4c5cc6cc[nH]c6nc5O[C@H]5COCC[C@@H]54)c3)CC2)C1` (stereo partly drawn) [Example 117, 2-[(3R,8S)-2,5-dioxa-9,15,17-triazatetracyclo[8.7.0.0^{3,8}.0^{12,16}]heptadeca-1(10),11,13,16-tetraen-9-yl]-4-{2-[(2S)-4-{2H,3H-[1,4]dioxino[2,3-b]pyridin-7-ylmethyl}-2-(2-isopropoxyphenyl)piperazin-1-yl]-7-azaspiro[3.5]nonan-7-yl}-N-[3-nitro-4-({[(1r,4r)-4-hydroxy-4-methylcyclohexyl]methyl}amino)benzenesulfonyl]benzamide], the IC50 under setting [1] was determined as 13.2 nM.

Turning to `COc1cc(CN2CCN([C@@H]3CC4(CCN(c5ccc(C(=O)NS(=O)(=O)c6ccc(NCC7CCC(C)(O)CC7)c([N+](=O)[O-])c6)c(N6c7cc8cc[nH]c8nc7O[C@H]7COCC[C@@H]76)c5)CC4)[C@@H]3C)[C@@H](c3ccccc3OC(C)C)C2)cnc1N1CCOCC1` (stereo partly drawn) [Example 120, 2-[(3R,8S)-2,5-dioxa-9,15,17-triazatetracyclo[8.7.0.0^{3,8}.0^{12,16}]heptadeca-1(10),11,13,16-tetraen-9-yl]-4-[(1S,2R)-2-[(2S)-2-(2-isopropoxyphenyl)-4-{[5-methoxy-6-(morpholin-4-yl)pyridin-3-yl]methyl}piperazin-1-yl]-1-methyl-7-azaspiro[3.5]nonan-7-yl]-N-[3-nitro-4-({[(1r,4r)-4-hydroxy-4-methylcyclohexyl]methyl}amino)benzenesulfonyl]benzamide], the IC50 under setting [1] was 147 nM.

With `COc1ccc(CN2CCN(C3CC4(CCN(c5ccc(C(=O)NS(=O)(=O)c6ccc(NCC7CCC(C)(O)CC7)c([N+](=O)[O-])c6)c(N6c7cc8cc[nH]c8nc7O[C@H]7COCC[C@@H]76)c5)CC4)C3)[C@@H](c3ccccc3OC(C)C)C2)nc1` (stereo partly drawn) [Example 103, 2-[(3R,8S)-2,5-dioxa-9,15,17-triazatetracyclo[8.7.0.0^{3,8}.0^{12,16}]heptadeca-1(10),11,13,16-tetraen-9-yl]-4-{2-[(2S)-2-(2-isopropoxyphenyl)-4-[(5-methoxypyridin-2-yl)methyl]piperazin-1-yl]-7-azaspiro[3.5]nonan-7-yl}-N-[3-nitro-4-({[(1r,4r)-4-hydroxy-4-methylcyclohexyl]methyl}amino)benzenesulfonyl]benzamide], under setting [1], the IC50 turned out to be 35.1 nM. Same read-out and setting: the value for `CC(C)Oc1ccccc1[C@H]1CN(Cc2ccnc3c2OCC(C)(C)O3)CCN1C1CC2(CCN(c3ccc(C(=O)NS(=O)(=O)c4ccc(NCC5CCC(C)(O)CC5)c([N+](=O)[O-])c4)c(N4c5cc6cc[nH]c6nc5O[C@H]5COCC[C@@H]54)c3)CC2)C1` (stereo partly drawn) [Example 127, 4-(2-((S)-4-((3,3-dimethyl-2,3-dihydro-[1,4]dioxino[2,3-b]pyridin-8-yl)methyl)-2-(2-isopropoxyphenyl)piperazin-1-yl)-7-azaspiro[3.5]nonan-7-yl)-N-((4-((((1r,4r)-4-hydroxy-4-methylcyclohexyl)methyl)amino)-3-nitrophenyl)sulfonyl)-2-((5aS,9aR)-6,7,9,9a-tetrahydro-1H-pyrano[3,4-b]pyrrolo[3′,2′:5,6]pyrido[3,2-e][1,4]oxazin-5(5aH)-yl)benzamide] was 8.1 nM.

For `Cc1ccccc1[C@@H]1CN(Cc2cnc(N3CCOC[C@@H]3C)c(C)c2)CCN1C1CC2(CCN(c3ccc(C(=O)NS(=O)(=O)c4cc5c(c([N+](=O)[O-])c4)N[C@H](C4CCOCC4)CO5)c(N4c5cc6cc[nH]c6nc5O[C@H]5COCC[C@@H]54)c3)CC2)C1` [Example 205, 2-[(3R,8S)-2,5-dioxa-9,15,17-triazatetracyclo[8.7.0.0^{3,8}.0^{12,16}]heptadeca-1(10),11,13,16-tetraen-9-yl]-4-{2-[(2R)-4-({5-methyl-6-[(3S)-3-methylmorpholin-4-yl]pyridin-3-yl}methyl)-2-(2-methylphenyl)piperazin-1-yl]-7-azaspiro[3.5]nonan-7-yl}-N-[(3R)-5-nitro-3-(oxan-4-yl)-3,4-dihydro-2H-1,4-benzoxazin-7-ylsulfonyl]benzamide], under setting [1], the IC50 is 21.3 nM. `CC(C)Oc1ccccc1[C@@H]1CN(c2ccccc2)CCN1C1CC2(CCN(c3ccc(C(=O)NS(=O)(=O)c4cc5c(c([N+](=O)[O-])c4)N[C@H](C4CCOCC4)CO5)c(N4c5cc6cc[nH]c6nc5O[C@H]5COCC[C@@H]54)c3)CC2)C1` [Example 222, 2-[(3R,8S)-2,5-dioxa-9,15,17-triazatetracyclo[8.7.0.0^{3,8}.0^{12,16}]heptadeca-1(10),11,13,16-tetraen-9-yl]-4-{2-[(2R)-2-(2-isopropoxyphenyl)-4-phenylpiperazin-1-yl]-7-azaspiro[3.5]nonan-7-yl}-N-[(3R)-5-nitro-3-(oxan-4-yl)-3,4-dihydro-2H-1,4-benzoxazin-7-ylsulfonyl]benzamide]: under setting [1], the half-inhibitory concentration (IC50) was determined as 240 nM.

Broadly, the IC50 is the concentration that inhibits the measured activity by half.
